Data published in publication PMC11089505, “Structural Elucidation and Antiviral Activity of Covalent Cathepsin L Inhibitors” (Journal of Medicinal Chemistry, 2024).
Several values for one entry are separate records, joined by “and”; a condition that tells them apart may be missing. Equal entries are not always repeated. Where two headings read alike, the source gives them in different places. Peptide text beside a SMILES is read from it. * marks the point of attachment. Cbz = O=C(OCc1ccccc1)*

Tests used:
[1] = target: SARS-CoV-2 Mpro (Severe acute respiratory syndrome coronavirus 2, UniProt P0DTD1); format: binding; settings: 2:1 compound to protein
[2] = target: T1, CatL (Homo sapiens, UniProt P07711, T223A); experiment: NanoDSF, thermal stability of CatL; format: binding
T1 construct: made in house; host or cells: Komagataella pastoris strain GS115

[3] = target: T2, cathepsin L (Homo sapiens, UniProt P07711, T223A); experiment: MALDI-TOF analysis of covalent CatL-inhibitor complex; format: binding; settings: 37 °C
T2 construct: made in house; host or cells: Komagataella pastoris strain GS115
Description: Experiments were performed in two different buffers, one at pH 4.0 (100 mM sodium acetate, pH 4.0, 50 mM NaCl, 5 mM DTT) and the other at pH 6.0 (100 mM sodium phosphate, pH 6.0, 50 mM NaCl, 5 mM DTT).
Mass spectrometry was performed on an UltrafleXtreme III MALDI-TOF/TOF mass spectrometer (Bruker, Billerica, MA). Samples were prepared on a standard steel target as described by Wenzel et al.[71] The spectra were acquired in a linear mode with a mass range of 20–50 kDa. […] The spectra were externally calibrated with aldolase and BSA standards (Sigma-Aldrich). Acquisition, processing, and calibration were performed using FlexControl 3.0 and FlexAnalysis software (Bruker).
(B) Two-dimensional interaction plot based on chain A according to Dis-
Figure S6. […] Activated matured cathepsin L (3 µM)
Molar ratio 1:10 pH = 4.0
Molar ratio 1:10 pH = 6.0 […]

[4] = Cell viability assay (CellTiter-Blue); settings: African green monkey
[5] = system: SARS-CoV-2-GFP in Vero E6 cells; experiment: microbe, parasite or virus in culture; format: cell-based; settings: Severe acute respiratory syndrome coronavirus 2, Vero C1008, 48 h, read-out: EC50 (48 h)
[6] = target: T1, CatL; experiment: CatL inactivation assay comparing epoxides at pH 6 and pH 4; format: biochemical
Description: (§1) Experiments were performed in a solution of 50 mM sodium acetate, pH 4.0, 50 mM NaCl, 0.1% PEG 6000, and 5 mM DTT. Distinct assays with epoxide inhibitors at pH 6.0 were performed in 50 mM sodium phosphate buffer, 50 mM NaCl, 5 mM DTT, 0.1% PEG 6000, adjusted to pH 6.0.
(§2) M1000 pro plate reader (Tecan), the fluorescent peptide substrate Z-RR-AMC, and excitation and emission wavelengths of 370 and 460 nm, respectively.
(§3) At first, the inhibitor concentration span was optimized for each inhibitor and the assay buffer. For this initial screening, CatL (5 nM) was mixed with different concentrations of inhibitors (1 nM–50 μM) to determine the range of their inhibition. […] Reaction data were fitted to the […] in GraphPad Prism 9 software: Y = bottom + (top – bottom)/(1 + 10^∧((log IC50 – X) × HillSlope)); X is the log of dose or concentration, Y is the response (fluorescence signal), decreasing as X increases, top and bottom are the plateaus in the same units as Y, log IC50 same log units as X, HillSlope is the slope factor or called the Hill slope.
Figure S7. Inactivation of CatL.
(1 picture or pasted object on this page, not shown here)

[7] = system: Vero E6 cells; experiment: Cell viability assay (CellTiter-Blue); settings: Vero E6 cells
[8] = in DMSO; compound supply and quality parameters, supplier named in Table S4; cited from earlier work
[9] = target: T1, CatL; experiment: CatL inhibition assay (Ki), substrate Z-RR-AMC; format: biochemical
Description: as §1, §2, §3

[10] = system: CatL; settings: Table S1, SI reference list; cited from earlier work

T1 sequence (P07711 114-333 T223A): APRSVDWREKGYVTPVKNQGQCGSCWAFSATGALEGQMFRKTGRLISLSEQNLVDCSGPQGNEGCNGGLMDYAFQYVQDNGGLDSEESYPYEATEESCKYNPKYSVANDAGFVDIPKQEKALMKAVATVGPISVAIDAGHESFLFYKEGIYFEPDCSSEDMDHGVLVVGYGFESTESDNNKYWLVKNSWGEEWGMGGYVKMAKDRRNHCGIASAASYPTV
T2 sequence (P07711 114-333 T223A): as above

SMILES: O=C(NCc1ccccc1)[C@H](Cc1ccccc1)NC(=O)[C@H]1O[C@@H]1C(=O)NCCc1ccc(O)cc1 [CAA0225, (2S.3S)-2-N-[(1S)-1-(Benzylcarbamoyl)-2-phenylethyl]-3-N-[2-(4-hydroxyphenyl)ethyl]oxirane-2.3-dicarboxamide]
- 2:1, Tm average (Mpro) [1]: 53.3 °C
- 2:1, Tm average (CatL) ([2]; 2:1 compound to protein): 70 °C
- 20:1, Tm average (CatL) ([2]; 20:1 compound to protein): 78.5 °C
- Mass change of cathepsin L main peak with vs without inhibitor ([3]; pH 4.0, molar ratio 1:10, 15 min): 477.7 Da
- Mass change of cathepsin L main peak with vs without inhibitor ([3]; pH 6.0, molar ratio 1:10, 15 min): 493.8 Da
- viability at 48 h, 1e-05 µM [4]: 103%
- viability at 48 h, 0.0001 µM [4]: 103%
- viability at 48 h, 0.001 µM [4]: 101%
- viability at 48 h, 0.01 µM [4]: 104%
- viability at 48 h, 0.1 µM [4]: 100%
- viability at 48 h, 1 µM [4]: 105%
- viability at 48 h, 10 µM [4]: 105%
- EC50 [5]: < 500 nM
- Inactivation Rate ([6]; CAA0225, pH 4, 4.39 nM): 0.0001763 per second
- Inactivation Rate ([6]; CAA0225, pH 4, 5.85 nM): 0.0002627 per second
- Inactivation Rate ([6]; CAA0225, pH 4, 6.59 nM): 0.0001334 per second
- Inactivation Rate ([6]; CAA0225, pH 4, 8.78 nM): 0.0003675 per second and 0.0002752 per second
- Inactivation Rate ([6]; CAA0225, pH 4, 9.88 nM): 0.0001166 per second
- Inactivation Rate ([6]; CAA0225, pH 4, 13.17 nM): 0.0002828 per second and 0.0003022 per second
- Inactivation Rate ([6]; CAA0225, pH 4, 14.82 nM): 0.0003059 per second
- Inactivation Rate ([6]; CAA0225, pH 4, 19.75 nM): 0.0002683 per second and 0.0004006 per second
- Inactivation Rate ([6]; CAA0225, pH 4, 22.22 nM): 0.0004569 per second
- Inactivation Rate ([6]; CAA0225, pH 4, 29.63 nM): 0.0004182 per second and 0.0006192 per second
- Inactivation Rate ([6]; CAA0225, pH 4, 33.34 nM): 0.0007535 per second
- Inactivation Rate ([6]; CAA0225, pH 4, 44.44 nM): 0.0007461 per second and 0.001023 per second
- Inactivation Rate ([6]; CAA0225, pH 4, 50.00 nM): 0.001182 per second
- Inactivation Rate ([6]; CAA0225, pH 4, 66.67 nM): 0.001354 per second and 0.001764 per second
- Inactivation Rate ([6]; CAA0225, pH 4, 100.00 nM): 0.001979 per second
- Inactivation Rate ([6]; CAA0225, pH 6, 4.39 nM): 0.0002723 per second
- Inactivation Rate ([6]; CAA0225, pH 6, 5.85 nM): 0.0006424 per second and 0.0005666 per second
- Inactivation Rate ([6]; CAA0225, pH 6, 6.59 nM): 0.0004593 per second
- Inactivation Rate ([6]; CAA0225, pH 6, 8.78 nM): 0.001025 per second and 0.001163 per second
- Inactivation Rate ([6]; CAA0225, pH 6, 9.88 nM): 0.0009595 per second
- Inactivation Rate ([6]; CAA0225, pH 6, 13.17 nM): 0.001923 per second and 0.002013 per second
- Inactivation Rate ([6]; CAA0225, pH 6, 14.82 nM): 0.001982 per second
- Inactivation Rate ([6]; CAA0225, pH 6, 19.75 nM): 0.00308 per second and 0.003226 per second
- Inactivation Rate ([6]; CAA0225, pH 6, 22.22 nM): 0.003696 per second
- Inactivation Rate ([6]; CAA0225, pH 6, 29.63 nM): 0.00521 per second and 0.005796 per second
- Inactivation Rate ([6]; CAA0225, pH 6, 33.34 nM): 0.006322 per second
- Inactivation Rate ([6]; CAA0225, pH 6, 44.44 nM): 0.007455 per second and 0.01045 per second
- Inactivation Rate ([6]; CAA0225, pH 6, 50.00 nM): 0.009878 per second
- Inactivation Rate ([6]; CAA0225, pH 6, 66.66 nM): 0.01058 per second and 0.01915 per second

SMILES: CC(C)C[C@@H](C=O)NC(=O)[C@H](CC(C)C)NC(=O)[C@H](CC(C)C)NC(=O)OCc1ccccc1 [MG-132, Z-Leu-Leu-Leu-aldehyde] (Cbz-Leu-Leu-Leu-aldehyde)
- 2:1, Tm average (CatL) [2]: 79.7 °C
- 20:1, Tm average (CatL) [2]: 81.7 °C
- ΔTm [K] for CatL, 2:1 ratio [2]: 16.6 ± 0.1 K
- ΔTm (for CatL), 2:1 compound to protein mixing ratio ([2]; pH 5): 16,6 ± 0,1 °C and 16.6 °C
- ΔTm (for CatL), 20:1 compound to protein mixing ratio ([2]; pH 5): 18,6 ± 0,1 °C and 18.6 °C
- cell toxicity [7]: notably high cell toxicity

SMILES: CCc1ccccc1NC(=O)CSC(=O)NNC(=O)[C@H](Cc1c[nH]c2ccccc12)NC(=O)OC(C)(C)C [TC-I, tert-Butyl N-[(2S)-1-[2-[2-(2-ethylanilino)-2-oxoethyl]sulfanylcarbonylhydrazinyl]-3-(1H-indol-3-yl)-1-oxopropan-2-yl]carbamate]
- Solvent (max. solubility) [8]: 50 mg/mL
- Ki ([9]; CatL, Z-RR-AMC, pH 4.0, 37 °C, read-out: Ki): 71.4 nM
- Residual activity (Vi/V0) ([9]; TC-I 0.665 nM): 0.9864 and 1.185
- remaining activity at 0.000665 µM ([9]; TC-I 0.665 nM, read-out: Residual activity (Vi/V0)): 100%
- Residual activity (Vi/V0) ([9]; TC-I 1.109 nM): 0.9905 and 1.057
- remaining activity at 0.001109 µM ([9]; TC-I 1.109 nM, read-out: Residual activity (Vi/V0)): 98.8%
- Residual activity (Vi/V0) ([9]; TC-I 1.849 nM): 0.9855 and 1.105
- remaining activity at 0.001849 µM ([9]; TC-I 1.849 nM, read-out: Residual activity (Vi/V0)): 103%
- Residual activity (Vi/V0) ([9]; TC-I 3.082 nM): 1.069 and 1.158
- remaining activity at 0.003082 µM ([9]; TC-I 3.082 nM, read-out: Residual activity (Vi/V0)): 111%
- Residual activity (Vi/V0) ([9]; TC-I 5.140 nM): 1.026 and 1.097
- remaining activity at 0.00514 µM ([9]; TC-I 5.140 nM, read-out: Residual activity (Vi/V0)): 104%
- Residual activity (Vi/V0) ([9]; TC-I 8.568 nM): 1.0471 and 1.09
- remaining activity at 0.008568 µM ([9]; TC-I 8.568 nM, read-out: Residual activity (Vi/V0)): 105%
- Residual activity (Vi/V0) ([9]; TC-I 14.274 nM): 0.9298 and 0.9778
- remaining activity at 0.014274 µM ([9]; TC-I 14.274 nM, read-out: Residual activity (Vi/V0)): 100%
- Residual activity (Vi/V0) ([9]; TC-I 23.798 nM): 0.9534 and 0.9214
- remaining activity at 0.023798 µM ([9]; TC-I 23.798 nM, read-out: Residual activity (Vi/V0)): 93.3%
- Residual activity (Vi/V0) ([9]; TC-I 39.658 nM): 0.9235 and 0.9214
- remaining activity at 0.039658 µM ([9]; TC-I 39.658 nM, read-out: Residual activity (Vi/V0)): 74.6%
- Residual activity (Vi/V0) ([9]; TC-I 66.096 nM): 0.583 and 0.7717 and 0.8256
- Residual activity (Vi/V0) ([9]; TC-I 110.160 nM): 0.683 and 0.704
- remaining activity at 0.11016 µM ([9]; TC-I 110.160 nM, read-out: Residual activity (Vi/V0)): 51.2%
- Residual activity (Vi/V0) ([9]; TC-I 183.600 nM): 0.3014 and 0.3466 and 0.5578
- ΔTm (for CatL), 2:1 compound to protein mixing ratio ([2]; 5 µM CatL, pH 5.0, 2% DMSO, 2:1): 18,4 ± 0,1 °C and 18.4 °C
- ΔTm (for CatL), 20:1 compound to protein mixing ratio ([2]; 5 µM CatL, pH 5.0, 2% DMSO, 20:1): 18,8 ± 0,0 °C and 18.8 °C
- 2:1, Tm average (CatL) ([2]; 2:1 compound to protein): 81.5 °C
- 20:1, Tm average (CatL) ([2]; 20:1 compound to protein): 81.9 °C
- ΔTm [K] for CatL, 2:1 ratio ([2]; Table S1, 2:1 ratio): 18.4 ± 0.1 K
- IC50 [10]: 6.9 nM
